Measurements from US20200347136A1, “CONSTRAINED CYCLIC PEPTIDES AS INHIBITORS OF THE CD2:CD58 PROTEIN-PROTEIN INTERACTION FOR TREATMENT OF DISEASES AND AUTOIMMUNE DISORDERS” (Board of Supervisors for the University of Louisiana System, priority 2019, published 2020).
“Also recorded” adds a separate entry of the source.

How the values were obtained:
BT-474 cells = settings: read-out: IC50 BT-474 (HER2+); antiproliferative activity
Description: (§1) Antiproliferative activity of grafted cyclic peptides. Antiproliferative activity of the designed grafted peptides was evaluated in different HER2-overexpressing cancer cell lines as well as HER2 negative cancer cell lines.
(§2) Table 1. […] Single letter amino acid code was used for peptide sequence. Lower case letters refer to D amino acids and capital letters refer to L amino acids. Chirality of Anapa was indicated with R and S configuration in italics. Antiproliferative activity of peptides in cancer cell lines are given as IC50 in μM. Disulfide bonds between the cysteines are underlined.

Calu-3 cells = settings: read-out: IC50 Calu-3 (HER2+); antiproliferative activity
Description: as §1, §2

A549 cells = settings: read-out: IC50 A549 (HER2+); antiproliferative activity
Description: as §1, §2

MCF-7 cells = settings: read-out: IC50 MCF-7 (HER2−); antiproliferative activity
Description: as §1, §2

[1] = thermal stability by circular dichroism and MALDI-TOF; assay type: physicochemical; settings: CD and mass spectrum, 25-75° C., in solution
Description: To confirm further, a mass spectrum of SFTI-G5 was obtained from the solution used to record the CD spectrum at different temperatures. Freeze-dried samples of different temperatures were analyzed via MALDI-TOF mass spectrometry.

Calu-3 xenograft tumors = experiment: Calu-3 xenograft model of lung cancer in nude mice; assay type: in vivo
Description: 5×10^6 Calu-3 cells suspended in serum-free medium were subcutaneously inoculated in left flank region of mice to induce lung cancer (Foxn1-nude). Peptide (8 mg/kg) was administered via intratumoral injection three times a week after 10 days, Pertuzumab was injected with a loading dose of 12 mg/kg and then 6 mg/kg as maintenance dose intraperitonially once a week, Trastuzumab and pertuzumab combination was injected at a loading dose of 12 mg/kg and then 6 mg/kg as maintenance dose once a week. […] For comparison, pertuzumab (up triangle, blue) and trastuzumab and pertuzumab combination (down triangle, red) also shown (with standard errors for n=6). […] C) PPI inhibition assessed by PLA on tumor tissue sample. […] Tumor sections were homogenized, and protein was extracted and subjected to Western blot. […] (** p<0.01). Mean±SEM.
HER2 dimerization inhibitors such as pertuzumab and trastuzumab and pertuzumab combinations were also administered as control groups (FIG. 11A). […] During the course of the experiment, the tumor size in the control xenograft group without any treatment continued to increase, reaching a diameter of ˜9 mm in 28 days (FIG. 11B).
To evaluate the phosphorylation of HER2 protein, Western blot analysis was performed on frozen tumor samples.

[2] = tested on: phosphorylation of HER2 and Akt; experiment: Western blot of HER2 and Akt phosphorylation, A549 cells; assay type: cell-based
Description: Binding to ECD protein at different concentrations. Kinetics of association and dissociation are shown. Inset saturation curve for binding. […] EGFR was immobilized on CM5-chip and HER2 was added as analyte. Binding of HER2 to EGFR is shown in red. […] Control represents cells without the peptide and without one of the antibodies (B & E). […] Control represents cells without the peptide and without one of the antibodies (F). […] Nucleus was stained with DAPI. III) Quantification of PLA assay fluorescence intensity. 3-6 different fields were chosen, and intensity of red fluorescence was measured using ImageJ software. […] Scale 20 μm. Magnification 40×. *p<0.05, ** p<0.01. Mean±SEM. […] The visualization of GAPDH was used to ensure equal sample loading in each lane. […] II) Quantification of Western blot images using densitometry. *p<0.05 *** P<0.001. Mean±SEM.
The phosphorylation of HER2 was measured by the p-HER2 monoclonal antibody. […] Lapatinib, an EGFR and HER2 kinase dual inhibitor were used as a positive control.

T cells (splenocytes) = experiment: immunogenicity, flow cytometry T-cell proliferation (Ki-67) in primed BALB/c mice; assay type: in vivo; settings: BALB/c mice primed 6 mg/kg; splenocytes with 5 μM peptide, 48 h
Description: SFTI-G5 is not immunogenic in mice. Molecules that are not endogenous to the body can trigger cellular responses when administered. […] Ki-67 is a proliferation marker of nuclear protein and has been used to measure specific T-cell responses. […] The animals were sacrificed on the 13th day, and splenocytes were harvested and cultured in vitro from both control and primed groups, either in the presence or absence of the peptide. Concanavalin A (5 μg/mL), an antigen-independent mitogen known to induce T-cell proliferation, was used as a positive control.

[3] = tested on: A549 Red-FLuc lung tumors; experiment: experimental metastasis model of lung cancer, A549 Red-FLuc cells
MCF-10A cells = experiment: Cell Titer-Glo antiproliferative assay, MCF-10A; assay type: cell-based; settings: antiproliferative activity, non-cancerous breast epithelial cell line
Description: as §1, §2

[4] = disulfide bond stability, CD spectrum with dithiothreitol; assay type: physicochemical; settings: presence versus absence of dithiothreitol
[5] = target: T1, HER2 ECD protein (domains I-IV) (Homo sapiens, UniProt P04626); experiment: SPR binding to immobilized HER2 ECD; settings: analyte over immobilized HER2 ECD
T1 construct: immobilizing HER2 ECD protein (domains I-IV, 620 amino acids)
T1 sequence (P04626 23-652 limits assumed): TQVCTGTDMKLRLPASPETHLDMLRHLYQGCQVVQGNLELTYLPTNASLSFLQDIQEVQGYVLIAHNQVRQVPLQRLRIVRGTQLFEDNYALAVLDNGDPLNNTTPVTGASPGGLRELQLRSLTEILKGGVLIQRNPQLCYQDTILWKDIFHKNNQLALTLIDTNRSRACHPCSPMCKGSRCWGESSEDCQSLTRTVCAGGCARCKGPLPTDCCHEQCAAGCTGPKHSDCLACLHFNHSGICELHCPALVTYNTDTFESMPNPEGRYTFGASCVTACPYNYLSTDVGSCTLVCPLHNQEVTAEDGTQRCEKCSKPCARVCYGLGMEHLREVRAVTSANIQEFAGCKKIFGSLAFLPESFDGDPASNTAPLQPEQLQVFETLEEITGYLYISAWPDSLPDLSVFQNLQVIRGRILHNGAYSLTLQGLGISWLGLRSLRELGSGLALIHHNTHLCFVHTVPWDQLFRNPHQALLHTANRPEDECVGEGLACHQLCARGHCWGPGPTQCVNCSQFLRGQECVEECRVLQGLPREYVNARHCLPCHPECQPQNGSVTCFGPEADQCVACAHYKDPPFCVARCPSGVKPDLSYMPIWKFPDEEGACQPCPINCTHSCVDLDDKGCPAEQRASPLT
Description: Binding affinities were obtained by global fitting analysis of the titration curve to the 1:1 Langmuir interaction model, and the Kd value was calculated.

Row | SMILES | IC50 (BT-474 cells) [nM] | IC50 (Calu-3 cells) [nM] | IC50 (A549 cells) [nM] | IC50 (MCF-7 cells) [nM] | thermal stability [1] | tumor growth (Calu-3 xenograft tumors; Calu-3 xenograft, SFTI-G5 8 mg/kg intratumoral thrice a week, antibodies 12 then 6 mg/kg once a week) | tolerability, body weight and clinical observations (Calu-3 xenograft tumors; SFTI-G5 monotherapy dosing schedule) | EGFR:HER2 dimerization in tumor sections (PLA) (Calu-3 xenograft tumors; vs control tumor sample) | HER2 phosphorylation in tumor samples (Western blot) (Calu-3 xenograft tumors; vs vehicle treatment) | total HER2 protein levels [2] | phosphorylation of Akt ([2]; 1 μM, 40 h, vs control) | phosphorylation of HER2 kinase ([2]; 1 μM, 40 h, vs control) | immune response: Ki-67 expression in CD3+ subsets (T cells (splenocytes)) | rate of tumor growth, total flux (p/s) ([3]; 6 mg/kg i.v. twice a week, vs vehicle) | H&E histology of lungs: enlarged hyperchromatic nuclei, eosinophilic cytoplasm ([3]; vs vehicle control) | IC50 (MCF-10A cells) [nM] | CD spectrum on addition of DTT [4] | SPR response on HER2 ECD [5]
1 | CC[C@H](C)[C@@H]1NC(=O)[C@H](CCCNC(=N)N)NC(=O)C[C@@H](c2cccc3ccccc23)NC(=O)[C@@H]2CSSC[C@H](NC(=O)C[C@@H](c3cccc4ccccc34)NC(=O)[C@H](CCCNC(=N)N)NC(=O)[C@@H]3CCCN3C(=O)[C@@H]3CCCN3C1=O)C(=O)N[C@@H](Cc1ccccc1)C(=O)N1CCC[C@H]1C(=O)N[C@@H](CC(=O)O)C(=O)N[C@@H](CC(=O)O)C(=O)N[C@@H](Cc1ccccc1)C(=O)N2 [SFTI-G5, Cyclo(C(S-X)RIPPR(S-X)CFPDDF)] | 280 | 73 | 369 | 25600 ± 1460 | stable at 75 °C; also recorded: stable up to 75 °C | delay in tumor growth that was significant compared to control; also recorded: delayed tumor growth | well-tolerated | markedly diminished signals from dimerization | significant inhibition of HER2 phosphorylation | no significant change in total HER2 protein levels | significantly inhibited the phosphorylation of Akt | significantly decreases the phosphorylation of HER2 kinase | did not show any significant immune response; also recorded: non-immunogenic | decreased; also recorded: significant reduction in tumor growth | there were less | > 50000 | sharp change in CD spectrum | –
2 | NCCCC[C@H](N)C(=O)NC(CC(=O)N[C@@H](Cc1ccccc1)C(=O)O)c1cccc2ccccc12 (stereo partly drawn) [Control, H2N-K(X)F-OH] | – | – | – | – | – | – | – | – | – | – | – | – | – | – | – | – | – | no SPR response was recorded
